What was measured:
smallflower flatsedge = experiment: Test B flood test smallflower flatsedge; assay type: in vivo, Cyperus difformis
Outline: (§1)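 Flood test on plants grown to the 2-leaf stage; treated plants kept in greenhouse twelve to sixteen days, then visually rated against controls on a 0 (no effect) to 10 (complete control) scale.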

surinam grass = experiment: Test B pre/postemergence surinam grass; assay type: in vivo, Brachiaria decumbens; settings: for B. signalgrass plant response rating: scale of 0 to 10 where 0 is no effect and 10 is complete control
Outline: (§2)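 Herbicidal effect was estimated by eye on a ten-point control scale after plants spent twelve to sixteen days in a greenhouse following soil or foliar treatment. Foliar sprays targeted plants at one to four leaves; all doses were formulated in a non-phytotoxic solvent with surfactant.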

wheat = experiment: Test B pre/postemergence wheat; assay type: in vivo, Triticum aestivum; settings: for Wheat plant response rating: scale of 0 to 10 where 0 is no effect and 10 is complete control
Outline: as §2

wild oat = experiment: Test B pre/postemergence wild oat; assay type: in vivo, Avena fatua; settings: for Wild oats plant response rating: scale of 0 to 10 where 0 is no effect and 10 is complete control
Outline: as §2

sugar beet = experiment: Test B pre/postemergence sugar beet; assay type: in vivo, Beta vulgaris; settings: for Sugarbeets plant response rating: scale of 0 to 10 where 0 is no effect and 10 is complete control
Outline: as §2

bamyardgrass = experiment: Test B flood test barnyardgrass; assay type: in vivo, Echinochloa crus-galli
Outline: as §1

duck salad = experiment: Test B flood test duck salad; assay type: in vivo, Heteranthera limosa
Outline: as §1

purple nutsedge = experiment: Test B pre/postemergence purple nutsedge; assay type: in vivo, Cyperus rotundus; settings: for Nutsedge plant response rating: scale of 0 to 10 where 0 is no effect and 10 is complete control
Outline: as §2

soybean = experiment: Test B pre/postemergence soybean; assay type: in vivo, Glycine max; settings: for Soybean plant response rating: scale of 0 to 10 where 0 is no effect and 10 is complete control
Outline: as §2

cocklebur = experiment: Test B pre/postemergence cocklebur; assay type: in vivo, Xanthium strumarium; settings: for Cocklebur plant response rating: scale of 0 to 10 where 0 is no effect and 10 is complete control
Outline: as §2

morningglory = experiment: Test B pre/postemergence morningglory; assay type: in vivo, Ipomoea hederacea; settings: for Morningglory plant response rating: scale of 0 to 10 where 0 is no effect and 10 is complete control
Outline: as §2

rape = experiment: Test B pre/postemergence rape; assay type: in vivo, Brassica napus; settings: for Rape plant response rating: scale of 0 to 10 where 0 is no effect and 10 is complete control
Outline: as §2

giant foxtail = experiment: Test B pre/postemergence giant foxtail; assay type: in vivo, Setaria faberii; settings: for Giant foxtail plant response rating: scale of 0 to 10 where 0 is no effect and 10 is complete control
Outline: as §2

bedstraw = experiment: Test B pre/postemergence bedstraw; assay type: in vivo, Galium aparine; settings: for Bedstraw plant response rating: scale of 0 to 10 where 0 is no effect and 10 is complete control
Outline: as §2

blackgrass = experiment: Test B pre/postemergence blackgrass; assay type: in vivo, Alopecurus myosuroides; settings: for Blackgrass plant response rating: scale of 0 to 10 where 0 is no effect and 10 is complete control
Outline: as §2

pigweed = experiment: Test B pre/postemergence pigweed; assay type: in vivo, Amaranthus retroflexus; settings: for Redroot pigweed plant response rating: scale of 0 to 10 where 0 is no effect and 10 is complete control
Outline: as §2

[1] = Rate 62 g/ha, flood test species, Pre-emergence, visual evaluation after twelve to sixteen days
[2] = Rate 125 g/ha, under heading Pre-emergence, flood test species, visual evaluation after twelve to sixteen days
[3] = Rate 250 g/ha, Pre-emergence, flood-test species, scale 0 to 10, 0 is no effect, 10 is complete control
[4] = Rate 500 g/ha, Pre-emergence, flood test species, scale 0 to 10 (0 no effect, 10 complete control)
[5] = Postemergence, Rate 125 g/ha, scale 0 to 10, 0 is no effect, 10 is complete control
[6] = Postemergence, Rate 250 g/ha, scale 0 to 10, 0 is no effect, 10 is complete control
[7] = Preemergence, Rate 62 g/ha, scale 0 to 10 (0 no effect, 10 complete control)
[8] = Rate 500 g/ha, Postemergence, scale 0 to 10, 0 no effect, 10 complete control

In the case of `Cc1nnsc1Cn1c(=O)on(C(=O)N(c2ccccc2)C(C)C)c1=O` [Compound 378], the “Plant response rating, S. Flatsedge (0 to 10 scale, 0 is no effect, 10 is complete control)” value (smallflower flatsedge; [1]) is reported as 0, the “S. Flatsedge plant response rating (0 to 10 scale, 0 is no effect, 10 is complete control)” value (smallflower flatsedge; [2]) is reported as 0 and the “S. Flatsedge plant response rating” value (smallflower flatsedge; [3]) is reported as 0. For the same compound, the “S. Flatsedge plant response rating” value (smallflower flatsedge; [4]) was 0, the “Plant response rating, B. signalgrass” value (surinam grass; [5]) was 0 and the “Plant response rating, B. signalgrass” value (surinam grass; [6]) was 0. The “Plant response rating, B. signalgrass” value (surinam grass; [7]) was 0, the “B. signalgrass plant response rating (0 to 10 scale, 0 is no effect, 10 is complete control)” value (surinam grass; Preemergence, Rate 125 g/ha) was 0 and the “B. signalgrass plant response rating” value (surinam grass; Preemergence, Rate 250 g/ha) was 0. The “B. signalgrass plant response rating” value (surinam grass; Preemergence, Rate 500 g/ha) was 0, the “B. signalgrass plant response rating” value (surinam grass; Rate 62 g/ha, Postemergence) was 0 and the “Plant response rating, B. signalgrass” value (surinam grass; [8]) was 2. The “Plant response rating, Wheat” value (wheat; [5]) was 0, the “Plant response rating, Wheat” value (wheat; [6]) was 0 and the “Plant response rating, Wheat” value (wheat; [7]) was 0. For the same compound, the “Wheat plant response rating (0 to 10 scale)” value (wheat; Preemergence, Rate 125 g/ha) was 0, the “Wheat plant response rating” value (wheat; Preemergence, Rate 250 g/ha) was 0 and the “Wheat plant response rating” value (wheat; Preemergence, Rate 500 g/ha) was 0. For the same compound, the “Wheat plant response rating” value (wheat; Rate 62 g/ha, Postemergence) was 0, the “Plant response rating, Wheat” value (wheat; [8]) was 0 and the “Plant response rating, Wild oats” value (wild oat; [5]) was 0. For the same compound, the “Plant response rating, Wild oats” value (wild oat; [6]) was 0, the “Plant response rating, Wild oats” value (wild oat; [7]) was 0 and the “Wild oats plant response rating (0 to 10 scale)” value (wild oat; Preemergence, Rate 125 g/ha) was 0. The “Wild oats plant response rating” value (wild oat; Preemergence, Rate 250 g/ha) was 0, the “Wild oats plant response rating” value (wild oat; Preemergence, Rate 500 g/ha) was 0 and the “Wild oats plant response rating” value (wild oat; Rate 62 g/ha, Postemergence) was 0. For the same compound, the “Plant response rating, Wild oats” value (wild oat; [8]) was 0, the “Plant response rating, Sugarbeets” value (sugar beet; [5]) was 0 and the “Plant response rating, Sugarbeets” value (sugar beet; [6]) was 0. The “Plant response rating, Sugarbeets” value (sugar beet; [7]) was 0, the “Sugarbeets plant response rating (0 to 10 scale)” value (sugar beet; Preemergence, Rate 125 g/ha) was 0 and the “Sugarbeets plant response rating” value (sugar beet; Preemergence, Rate 250 g/ha) was 0. The “Sugarbeets plant response rating” value (sugar beet; Preemergence, Rate 500 g/ha) was 0, the “Sugarbeets plant response rating” value (sugar beet; Rate 62 g/ha, Postemergence) was 0 and the “Plant response rating, Sugarbeets” value (sugar beet; [8]) was 0. For the same compound, the “Plant response rating, Barnyardgrass (0 to 10 scale, 0 is no effect, 10 is complete control)” value (bamyardgrass; [1]) was 0, the “Barnyardgrass plant response rating (0 to 10 scale, 0 is no effect, 10 is complete control)” value (bamyardgrass; [2]) was 0 and the “Barnyardgrass plant response rating” value (bamyardgrass; [3]) was 0. The “Barnyardgrass plant response rating” value (bamyardgrass; [4]) was 0, the “Plant response rating, Ducksalad (0 to 10 scale, 0 is no effect, 10 is complete control)” value (duck salad; [1]) was 0 and the “Ducksalad plant response rating (0 to 10 scale, 0 is no effect, 10 is complete control)” value (duck salad; [2]) was 0. The “Ducksalad plant response rating” value (duck salad; [3]) was 0, the “Ducksalad plant response rating” value (duck salad; [4]) was 0 and the “Plant response rating, Nutsedge” value (purple nutsedge; [5]) was 0. For the same compound, the “Plant response rating, Nutsedge” value (purple nutsedge; [6]) was 0, the “Plant response rating, Nutsedge” value (purple nutsedge; [7]) was 0 and the “Nutsedge plant response rating (0 to 10 scale)” value (purple nutsedge; Preemergence, Rate 125 g/ha) was 0. The “Nutsedge plant response rating” value (purple nutsedge; Preemergence, Rate 250 g/ha) was 0, the “Nutsedge plant response rating” value (purple nutsedge; Preemergence, Rate 500 g/ha) was 0 and the “Nutsedge plant response rating” value (purple nutsedge; Rate 62 g/ha, Postemergence) was 0. For the same compound, the “Plant response rating, Nutsedge” value (purple nutsedge; [8]) was 0, the “Plant response rating, Soybean” value (soybean; [5]) was 0 and the “Plant response rating, Soybean” value (soybean; [6]) was 0. For the same compound, the “Plant response rating, Soybean” value (soybean; [7]) was 0, the “Soybean plant response rating (0 to 10 scale)” value (soybean; Preemergence, Rate 125 g/ha) was 0 and the “Soybean plant response rating” value (soybean; Preemergence, Rate 250 g/ha) was 0. The “Soybean plant response rating” value (soybean; Preemergence, Rate 500 g/ha) was 0, the “Soybean plant response rating” value (soybean; Rate 62 g/ha, Postemergence) was 0 and the “Plant response rating, Soybean” value (soybean; [8]) was 2. The “Plant response rating, Cocklebur” value (cocklebur; [5]) was 0, the “Plant response rating, Cocklebur” value (cocklebur; [6]) was 0 and the “Plant response rating, Cocklebur” value (cocklebur; [7]) was 0. For the same compound, the “Cocklebur plant response rating (0 to 10 scale)” value (cocklebur; Preemergence, Rate 125 g/ha) was 0, the “Cocklebur plant response rating” value (cocklebur; Preemergence, Rate 250 g/ha) was 0 and the “Cocklebur plant response rating” value (cocklebur; Preemergence, Rate 500 g/ha) was 0. For the same compound, the “Cocklebur plant response rating” value (cocklebur; Rate 62 g/ha, Postemergence) was 0, the “Plant response rating, Cocklebur” value (cocklebur; [8]) was 1 and the “Plant response rating, Morningglory” value (morningglory; [5]) was 7. For the same compound, the “Plant response rating, Morningglory” value (morningglory; [6]) was 10, the “Plant response rating, Morningglory” value (morningglory; [7]) was 0 and the “Morningglory plant response rating (0 to 10 scale)” value (morningglory; Preemergence, Rate 125 g/ha) was 0. The “Morningglory plant response rating” value (morningglory; Preemergence, Rate 250 g/ha) was 0, the “Morningglory plant response rating” value (morningglory; Preemergence, Rate 500 g/ha) was 0 and the “Morningglory plant response rating” value (morningglory; Rate 62 g/ha, Postemergence) was 5. For the same compound, the “Plant response rating, Morningglory” value (morningglory; [8]) was 10, the “Plant response rating, Rape” value (rape; [5]) was 0 and the “Plant response rating, Rape” value (rape; [6]) was 0. For the same compound, the “Plant response rating, Rape” value (rape; [7]) was 0, the “Rape plant response rating (0 to 10 scale)” value (rape; Preemergence, Rate 125 g/ha) was 0 and the “Rape plant response rating” value (rape; Preemergence, Rate 250 g/ha) was 0. For the same compound, the “Rape plant response rating” value (rape; Preemergence, Rate 500 g/ha) was 0, the “Rape plant response rating” value (rape; Rate 62 g/ha, Postemergence) was 0 and the “Plant response rating, Rape” value (rape; [8]) was 3. For the same compound, the “Plant response rating, Giant foxtail” value (giant foxtail; [5]) was 0, the “Plant response rating, Giant foxtail” value (giant foxtail; [6]) was 3 and the “Plant response rating, Giant foxtail” value (giant foxtail; [7]) was 4. The “Giant foxtail plant response rating (0 to 10 scale)” value (giant foxtail; Preemergence, Rate 125 g/ha) was 4, the “Giant foxtail plant response rating” value (giant foxtail; Preemergence, Rate 250 g/ha) was 10 and the “Giant foxtail plant response rating” value (giant foxtail; Preemergence, Rate 500 g/ha) was 10. For the same compound, the “Giant foxtail plant response rating” value (giant foxtail; Rate 62 g/ha, Postemergence) was 0, the “Plant response rating, Giant foxtail” value (giant foxtail; [8]) was 8 and the “Plant response rating, Bedstraw” value (bedstraw; [6]) was 0. The “Plant response rating, Bedstraw” value (bedstraw; [7]) was 0, the “Bedstraw plant response rating (0 to 10 scale)” value (bedstraw; Preemergence, Rate 125 g/ha) was 0 and the “Bedstraw plant response rating” value (bedstraw; Preemergence, Rate 250 g/ha) was 0. The “Bedstraw plant response rating” value (bedstraw; Preemergence, Rate 500 g/ha) was 0, the “Plant response rating, Blackgrass” value (blackgrass; [5]) was 0 and the “Plant response rating, Blackgrass” value (blackgrass; [6]) was 0. The “Plant response rating, Blackgrass” value (blackgrass; [7]) was 0, the “Blackgrass plant response rating (0 to 10 scale)” value (blackgrass; Preemergence, Rate 125 g/ha) was 0 and the “Blackgrass plant response rating” value (blackgrass; Preemergence, Rate 250 g/ha) was 0. The “Blackgrass plant response rating” value (blackgrass; Preemergence, Rate 500 g/ha) was 0, the “Blackgrass plant response rating” value (blackgrass; Rate 62 g/ha, Postemergence) was 0 and the “Plant response rating, Redroot pigweed” value (pigweed; [5]) was 0. For the same compound, the “Plant response rating, Redroot pigweed” value (pigweed; [6]) was 0, the “Plant response rating, Redroot pigweed” value (pigweed; [7]) was 0 and the “Redroot pigweed plant response rating (0 to 10 scale)” value (pigweed; Preemergence, Rate 125 g/ha) was 0. For the same compound, the “Redroot pigweed plant response rating” value (pigweed; Preemergence, Rate 250 g/ha) was 0, the “Redroot pigweed plant response rating” value (pigweed; Preemergence, Rate 500 g/ha) was 0 and the “Redroot pigweed plant response rating” value (pigweed; Rate 62 g/ha, Postemergence) was 0. For the same compound, the “Plant response rating, Redroot pigweed” value (pigweed; [8]) was 2.
